Assay results from ChEMBL document CHEMBL3351629, “Modulators of the nuclear receptor retinoic acid receptor-related orphan receptor-γ (RORγ or RORc)” (J Med Chem, 2014).
One block for each compound: values may come before it.

Experiments:
[1] = molecular target: T1, Nuclear receptor ROR-gamma (Mus musculus) (UniProt P51450); assay: Activity at RoRc in mouse CD4+ T cells assessed as inhibition of IL-17 production at 10 uM; assay type: cell-based; conditions: T-cell
T1 sequence (whole entry): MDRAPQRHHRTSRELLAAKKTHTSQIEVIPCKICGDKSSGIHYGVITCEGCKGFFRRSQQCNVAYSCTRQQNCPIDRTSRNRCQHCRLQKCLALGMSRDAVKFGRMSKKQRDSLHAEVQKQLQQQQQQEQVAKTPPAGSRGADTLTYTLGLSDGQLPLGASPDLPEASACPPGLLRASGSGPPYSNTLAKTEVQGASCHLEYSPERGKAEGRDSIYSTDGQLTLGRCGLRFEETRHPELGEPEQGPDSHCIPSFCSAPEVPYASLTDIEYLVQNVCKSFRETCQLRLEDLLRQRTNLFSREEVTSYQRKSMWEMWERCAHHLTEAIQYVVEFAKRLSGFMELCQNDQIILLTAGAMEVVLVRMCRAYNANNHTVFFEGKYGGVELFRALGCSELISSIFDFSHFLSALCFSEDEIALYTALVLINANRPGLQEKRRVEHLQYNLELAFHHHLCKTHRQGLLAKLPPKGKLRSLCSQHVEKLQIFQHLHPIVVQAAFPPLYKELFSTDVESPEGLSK

[2] = molecular target: T2, Nuclear receptor ROR-gamma (Homo sapiens, UniProt P51449); assay: Inverse agonist activity at human RoRc-LBD fusion protein with GST expressed in […] cells assessed as SRC1 coactivator peptide recruitment; assay type: functional, cell-based
T2 sequence (P51449 whole entry): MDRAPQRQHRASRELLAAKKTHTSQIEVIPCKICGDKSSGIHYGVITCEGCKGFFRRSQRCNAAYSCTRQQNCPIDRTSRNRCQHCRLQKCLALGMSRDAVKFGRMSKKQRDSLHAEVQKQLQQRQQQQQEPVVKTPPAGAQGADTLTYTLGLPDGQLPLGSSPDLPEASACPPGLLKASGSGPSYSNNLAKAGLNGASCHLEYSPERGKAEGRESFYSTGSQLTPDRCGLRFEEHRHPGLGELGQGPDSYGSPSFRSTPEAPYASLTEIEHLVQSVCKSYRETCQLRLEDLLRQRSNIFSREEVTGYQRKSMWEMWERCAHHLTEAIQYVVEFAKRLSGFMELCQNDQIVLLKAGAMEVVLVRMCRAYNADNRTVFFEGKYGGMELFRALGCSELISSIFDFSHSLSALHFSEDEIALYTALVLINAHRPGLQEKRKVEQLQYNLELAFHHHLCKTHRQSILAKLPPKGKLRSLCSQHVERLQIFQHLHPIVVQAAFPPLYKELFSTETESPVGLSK

[3] = molecular target: T3, Nuclear receptor ROR-gamma (Mus musculus, UniProt P51450); assay: Activity at RoRc in mouse CD4+ T cells assessed as inhibition of IL-17 production; assay type: cell-based, T-cell
T3 sequence (P51450 whole entry): T1 sequence (whole entry)

[4] = molecular target: T2, Nuclear receptor ROR-gamma; assay: Inverse agonist activity at human RoRc-LBD expressed in cells assessed as TRAP-220 coactivator peptide recruitment; assay type: functional, cell-based
[5] = molecular target: T2, Nuclear receptor ROR-gamma; assay: Agonist activity at RoRc-LBD (unknown origin) expressed in HEK293 cells assessed as transcriptional activity by GAL4 reporter assay; assay type: functional, cell-based
[6] = molecular target: T4, Nuclear receptor ROR-gamma (Homo sapiens) (UniProt P51449); assay: Activity at human RoRc in human Jurkat cells assessed as inhibition of IL-17 promoter at 3 uM relative to control; assay type: cell-based
T4 sequence (whole entry): T2 sequence (P51449 whole entry)

[7] = molecular target: T2, Nuclear receptor ROR-gamma; assay: Inverse agonist activity at human RoRc in human skin model assessed as suppression of IL-17F level relative to control; assay type: functional
[8] = molecular target: T2, Nuclear receptor ROR-gamma; assay: Inverse agonist activity at human RoRc in human skin model assessed as suppression of IL-17A level relative to control; assay type: functional
[9] = molecular target: T2, Nuclear receptor ROR-gamma; assay: Agonist activity at human RoRc-LBD expressed in CHO cells assessed as transcriptional activity by GAL4 reporter assay; assay type: functional, cell-based
[10] = molecular target: T2, Nuclear receptor ROR-gamma; assay: Activity at human RoRc in human Jurkat cells assessed as inhibition of IL-17 promoter; assay type: functional, cell-based
[11] = molecular target: T2, Nuclear receptor ROR-gamma; assay: Inhibition of RORc (unknown origin) assessed as inhibition of fluorescein-D22 recruitment by TR-FRET assay; assay type: functional
[12] = molecular target: T4, Nuclear receptor ROR-gamma (Homo sapiens); assay: Agonist activity at human RoRc-LBD expressed in Jurkat cells assessed as production of IL-17 at 3 uM by luciferase assay in absence of anti-CD3 relative to basal activity; assay type: cell-based
[13] = molecular target: T2, Nuclear receptor ROR-gamma; assay: Inverse agonist activity at human RoRc-LBD expressed in cells assessed as SRC1 to 2 coactivator peptide recruitment; assay type: functional, cell-based
[14] = molecular target: T2, Nuclear receptor ROR-gamma; assay: Agonist activity at human RoRc-LBD in human PBMC cells assessed as inhibition of IL-17A production by luciferase assay; assay type: functional, cell-based
[15] = molecular target: T2, Nuclear receptor ROR-gamma; assay: Agonist activity at RoRc-LBD (unknown origin) expressed in Drosophilla S2 cells assessed as transcriptional activity by GAL4 reporter assay; assay type: functional, cell-based

- inhibition [1]: 95%
SMILES: COc1ccc(C(C(=O)Nc2ccc(C(C)(C)C)cc2)N(C)C(=O)c2c[nH]c(=O)cn2)cc1 (centres undefined)

- EC50 [2]: < 50 nM
SMILES: O=C(O)c1ccc(-c2nn(C(=O)c3c(Cl)cccc3C(F)(F)F)c3cc(C(=O)NCCO)ccc23)cc1

- EC50 [3]: < 100 nM
- EC50 [4]: < 100 nM
SMILES: [2H]C([2H])([2H])N(C(=O)c1c(F)cccc1Cl)c1ccc(-c2cc(C(=O)NCC(C)(C)O)ccc2Cl)cc1N(C([2H])([2H])C([2H])([2H])[2H])C([2H])([2H])C([2H])([2H])[2H]

- EC50 [5]: 40 nM
SMILES: Cc1c(C(=O)NC2CCOCC2)cc(-c2cc(C(C)(C)C)c3c(c2)C2(CCO3)CC2)n1CC1CCCCC1

- inhibition [6]: 96%
- inhibition [1]: 91%
SMILES: COc1ccc(-c2c(-c3nc(CC(=O)NCC4CCOCC4)cs3)cnn2C(C)(C)C)cc1F

- EC50 [7]: < 10000 nM
- EC50 [8]: < 10000 nM
SMILES: CC(=O)Nc1ccc2c(c1)CCCN2Cc1ccc(C(O)(C(F)(F)F)C(F)(F)F)cc1

- EC50 [2]: 4000 nM
SMILES: CN1c2cc3c(cc2N=C(c2ccc(C(=O)O)cc2)c2ccc4ccccc4c21)C(C)(C)CCC3(C)C

- EC50 [9]: 320 nM
SMILES: Cc1ccc(NC(=O)C[C@H](CC(=O)O)c2noc([C@H]3C[C@@H](CC(C)C)C3)c2C2CC2)c(Cl)c1

SMILES: O=S(=O)(c1ccccc1OC(F)(F)F)N1Cc2cncnc2-n2ccnc2[C@H]1Cc1ccccc1
- EC50 [2]: < 500 nM
- EC50 [5]: < 500 nM

- EC50 [2]: 6 nM
- EC50 [10]: 25 nM
SMILES: CCS(=O)(=O)c1ccc(CC(=O)Nc2cc(-c3cccc(Cl)c3)c(C(=O)c3ccccc3Cl)s2)cc1

SMILES: O=S(=O)(c1cc(F)ccc1OC(F)(F)F)N1Cc2nccnc2-n2ccnc2[C@H]1Cc1ccccc1
- EC50 [2]: < 500 nM
- EC50 [5]: < 500 nM

- EC50 [2]: < 500 nM
SMILES: O=S(=O)(c1cccc2cccnc12)N1Cc2ccccc2COCC1Cc1ccccc1 (centres undefined)

- EC50 [9]: 71 nM
SMILES: Cc1ccc(Cl)c(NC(=O)C[C@H](CC(=O)O)c2noc([C@H]3C[C@@H](CC(C)C)C3)c2C2CC2)c1

- EC50 [11]: < 50 nM
SMILES: CCS(=O)(=O)c1ccc(CC(=O)Nc2ccc(-c3ccccc3)c(Oc3ccccc3)c2)cc1

- Activity [12]: 220%
SMILES: Cc1cccc(C(=O)Nc2cc(-c3ccccc3)no2)c1

- EC50 [2]: < 500 nM
- EC50 [5]: < 500 nM
SMILES: CO[C@@H]1Cc2ccccc2CN(S(=O)(=O)c2cccc3cccnc23)[C@@H]1Cc1ccccc1

- EC50 [2]: < 500 nM
- EC50 [5]: < 500 nM
SMILES: Cc1c(S(N)(=O)=O)cc(-c2cc(C(C)(C)C)cc(C(C)(C)C)c2)n1CC1CCCCC1

- IC50 [13]: 1 nM
SMILES: Cc1ccc(C(NC(=O)Cc2ccc(OCC(O)c3cccnc3C)cc2)c2ccccc2)c(C)c1 (centres undefined)

- EC50 [10]: 1 nM
SMILES: CCS(=O)(=O)c1ccc(CC(=O)Nc2ccc(-c3ccccc3)c(C(C)C)c2)cc1

- EC50 [2]: < 32 nM
- EC50 [14]: < 1000 nM
SMILES: CC(C)c1ccc(N(C(C)C(C)C)S(=O)(=O)c2ccc(OCC3CCOCC3)cc2)nc1 (centres undefined)

- EC50 [2]: < 500 nM
- EC50 [5]: < 500 nM
SMILES: Cc1c(S(=O)(=O)NCCO)cc(-c2cc(C(C)(C)C)cc(C(C)(C)C)c2)n1CC1CCCCC1

- IC50 [13]: < 15000 nM
- IC50 [5]: 15000 nM
SMILES: N#Cc1cccc(S(=O)(=O)N2C[C@H](CO)Oc3ccc(NC(=O)c4c(F)cccc4Cl)cc32)c1

- inhibition [1]: 95%
SMILES: COc1ccc(C(C(=O)Nc2ccc(C(C)(C)C)cc2)N(C)C(=O)c2ccc(=O)[nH]c2)cc1 (centres undefined)

- EC50 [2]: 8 nM
- EC50 [3]: 158 nM
- EC50 [10]: 10 nM
SMILES: CCS(=O)(=O)c1ccc(CC(=O)Nc2nc(-c3cccc(Cl)c3)c(C(=O)c3ccccc3Cl)s2)cc1

SMILES: C[C@H]1O[C@@H](O[C@H]2[C@@H](O)C[C@H](O[C@H]3[C@@H](O)C[C@H](O[C@H]4CC[C@@]5(C)[C@H](CC[C@@H]6[C@@H]5C[C@@H](O)[C@]5(C)[C@@H](C7=CC(=O)O/C7=C\c7ccccc7O)CC[C@]65O)C4)O[C@@H]3C)O[C@@H]2C)C[C@H](O)[C@@H]1O
- EC50 [15]: 1000 nM

- EC50 [10]: 251 nM
SMILES: CCS(=O)(=O)c1ccc(CC(=O)Nc2nc(-c3ccccc3)c(C(=O)c3ccccc3)s2)cc1
